Earlier results as cited in patent publication US20070066591A1, “Compounds, compositions, and methods” (priority 2003, published 2007).

Test system: A549 cells
Details: data provided by National Cancer Institute, Developmental Therapeutic Program

| Compound | GI50 [nM] |
| --- | --- |
| COc1cccc2c1C(=O)c1c(O)c3c(c(O)c1C2=O)C[C@@](O)(C(=O)CO)C[C@@H]3O[C@H]1C[C@H](N)[C@H](O)[C@H](C)O1 [doxorubicin] | 63 |
| CC(=O)O[C@H]1C(=O)[C@@]2(C)[C@H]([C@H](OC(=O)c3ccccc3)[C@]3(O)C[C@H](OC(=O)[C@H](O)[C@@H](NC(=O)c4ccccc4)c4ccccc4)C(C)=C1C3(C)C)[C@]1(OC(C)=O)CO[C@@H]1C[C@@H]2O [paclitaxel] | 4 |
| O=c1[nH]cc(F)c(=O)[nH]1 [5-fluorouracil] | 1000 |
| NC(=O)NO [hydroxyurea] | 500000 |
